# Experimental data: patent US6806275B2, “Arylpiperidine derivatives and use thereof” (Nihon Nohyaku Co., Ltd., priority 1998, dated 2004)
# Tests used:
# human D4.2 receptor = target: T1, human D4.2 receptor (Homo sapiens, UniProt P21917, DEL265-296); test: Dopamine D4 receptor binding assay ([3H]spiperone); settings: CHO cell membrane expressing human D4.2 receptor; [3H]spiperone 0.5 nM; 27° C., 2 hours
# T1 construct: expressed in transfected cells; host or cells: CHO cells (membrane preparation)
# T1 sequence (P21917 with tags, fused parts or gaps DEL265-296): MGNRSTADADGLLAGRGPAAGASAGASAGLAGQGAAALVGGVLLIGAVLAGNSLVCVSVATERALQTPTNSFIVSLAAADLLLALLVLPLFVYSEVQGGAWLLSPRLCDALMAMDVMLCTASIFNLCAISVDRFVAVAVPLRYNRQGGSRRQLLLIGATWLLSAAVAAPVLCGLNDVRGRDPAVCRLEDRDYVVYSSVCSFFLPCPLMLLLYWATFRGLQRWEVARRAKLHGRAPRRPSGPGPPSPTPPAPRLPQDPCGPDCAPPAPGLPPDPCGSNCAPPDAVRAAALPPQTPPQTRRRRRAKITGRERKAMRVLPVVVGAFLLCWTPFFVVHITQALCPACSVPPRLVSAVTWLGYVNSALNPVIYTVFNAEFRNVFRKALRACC
# Method: 1. Dopamine D4 Receptor Binding Assay
# Chinese hamster ovarium (CHO) cell membrane wherein human D4.2 receptor was expressed was used as a receptor preparation.
# [^3H] spiperone was used as a [^3H]-labeled ligand.
# Human D4.2 receptor binding assay: The (CHO) cell membrane wherein human D4.2 receptor was expressed, [^3H] spiperone (0.5 nM) and each test drug were incubated at 27° C. for 2 hours in 50 mM Tris-hydrochloric acid buffer (pH 7.4) containing 5 mM EDTA, 1.5 mM calcium chloride, 5 mM potassium chloride and 120 mM sodium chloride.
# (§1) After completion of the reaction, the reaction mixture was filtered by suction through a glass filter (GF/B), and radioactivity in the filter paper was measured with a liquid scintillation spectrometer.
# Binding under the reaction of [^3H] spiperone carried out in the presence of 10 μM haloperidol was defined as nonspecific binding of [^3H] spiperone, and the difference between the total binding and the nonspecific binding was defined as specific binding.
# [1] = target: T2, Dopamine D2 receptor (rat striatum membrane) (Rattus norvegicus, UniProt P61169); test: Dopamine D2 receptor binding assay ([3H]raclopride); settings: [3H]raclopride 1 nM, 25° C., 1 hour
# T2 construct: Rat striatum was homogenized in 50 mM Tris-hydrochloric acid buffer (pH 7.4); from tissue; host or cells: rat striatum
# T2 sequence (P61169 whole entry): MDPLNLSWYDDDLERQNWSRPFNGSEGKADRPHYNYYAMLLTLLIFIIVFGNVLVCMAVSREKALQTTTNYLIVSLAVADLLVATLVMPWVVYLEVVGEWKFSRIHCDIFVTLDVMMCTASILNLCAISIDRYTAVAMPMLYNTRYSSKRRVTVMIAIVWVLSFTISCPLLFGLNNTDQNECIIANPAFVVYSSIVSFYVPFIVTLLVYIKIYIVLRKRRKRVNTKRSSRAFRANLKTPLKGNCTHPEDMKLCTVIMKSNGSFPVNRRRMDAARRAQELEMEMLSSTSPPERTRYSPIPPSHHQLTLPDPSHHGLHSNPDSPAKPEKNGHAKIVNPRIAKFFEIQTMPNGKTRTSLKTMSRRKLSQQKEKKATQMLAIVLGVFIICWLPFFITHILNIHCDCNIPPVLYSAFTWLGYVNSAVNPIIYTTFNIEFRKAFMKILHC
# Method: 2. Dopamine D2 Receptor Binding Assay
# Rat striatum membrane was used as a receptor preparation.
# [^3H] raclopride was used as a [^3H]-labeled ligand.
# Preparation of the receptor preparation: Rat striatum was homogenized in 50 mM Tris-hydrochloric acid buffer (pH 7.4), and the homogenate was centrifuged at 48,000×g and the pellet was washed once with Tris-hydrochloric acid buffer. The washed pellet was suspended in 50 mM Tris-hydrochloric acid buffer (pH 7.4) containing 120 mM sodium chloride, 5 mM potassium chloride, 2 mM calcium chloride and 1 mM magnesium chloride, to obtain a membrane preparation.
# Dopamine D2 receptor binding assay: The membrane preparation (0.5 mg protein/ml), [^3H] raclopride (1 nM) and each test drug were incubated at 25° C. for 1 hour.
# as §1
# Binding under the reaction of [^3H] raclopride carried out in the presence of 10 μM haloperidol was defined as nonspecific binding of [^3H] lacropirido, and the difference between the total binding and the nonspecific binding was defined as specific binding.
melting point [°C],IC50 (human D4.2 receptor) [nM],IC50 [1] [nM],SMILES
123 to 124,,,"Fc1ccc(-c2ncncc2CCN2CCC(c3csc4cc(F)ccc34)CC2)cc1 [Example 11, 6-(4-fluorophenyl)-5-[2-[4-(6-fluorobenzo[b]thiophen-3-yl)piperidin-1-yl]ethyl]pyrimidine]"
145 to 146,2.4,206,Cc1nc(-c2ccc(F)cc2)c(CCN2CCC(n3nnc4cc(F)ccc43)CC2)s1 [B-29]
162 to 163,,,"Fc1ccc(-c2[nH]ncc2CCN2CCC(c3csc4cc(F)ccc34)CC2)cc1 [Example 10, 5-(4-fluorophenyl)-4-[2-[4-(6-fluorobenzo[b]thiophen-3-yl)piperidin-1-yl]ethyl]pyrazole]"
282 to 284,32,> 1000,Nc1nc(-c2ccc(F)cc2)c(CCN2CCC(n3cnc4cc(F)ccc43)CC2)s1 [B-25]
,3.1,67.3,"Nc1nc(-c2ccc(F)cc2)c(CCN2CCC(c3coc4cc(F)ccc34)CC2)s1 [B-01, 2-amino-4-(4-fluorophenyl)-5-[2-[4-(6-fluorobenzofuran-3-yl)piperidin-1-yl]ethyl]thiazole]"
203 to 203.5,2,81.1,Nc1nc(-c2ccc(F)cc2)c(CCN2CCC(c3c[nH]c4ccccc34)CC2)s1 [B-09]
223 to 224,,,"CSc1nc(-c2ccc(F)cc2)c(CCN2CCC(n3nnc4cc(F)ccc43)CC2)[nH]1 [C-03, 2-methylthio-4-(4-fluorophenyl)-5-[2-[4-(5-fluoro-1H-benzotriazol-1-yl)piperidin-1-yl]ethyl]imidazole]"
165 to 167,0.4,26.6,Cc1nc(-c2ccc(F)cc2)c(CCN2CCC(c3c[nH]c4ccccc34)CC2)s1 [B-11]
,5.5,298,"Nc1nc(-c2ccc(F)cc2)c(CCN2CCC(n3nnc4cc(F)ccc43)CC2)s1 [B-26, 2-amino-4-(4-fluorophenyl)-5-[2-[4-(5-fluoro-1H-benzotriazol-1-yl)piperidin-1-yl]ethyl]thiazole]"
186 to 188,,,"Oc1nc(-c2ccc(F)cc2)c(CCN2CCC(c3coc4cc(F)ccc34)CC2)s1 [B-06, 2-hydroxy-4-(4-fluorophenyl)-5-[2-[4-(6-fluorobenzofuran-3-yl)piperidin-1-yl]ethyl]thiazole]"
